Data on five molecules can be found in patent US20150225454A1, “TETRABRANCHED PEPTIDES AND ANALOGUES AS A NEW CLASS OF ANTIMICROBIALS AND THEIR PREPARATION THEREOF” (priority 2012, published 2015).

SMILES strings stand for the structures. Where a SMILES comes first, the peptide text is derived from it. Bridges are numbered along the chain shown (N, C = ends). Roman numbers before positions name the chains, in order.

A word on the EC50: it is the concentration at which the effect is half-maximal. The low end stands for higher potency in that assay, the high end for lower potency in that assay.

This assay concerns IOBA-NHC cells. It is filed as cell-based, human. Conditions: 24 h. Here is the method:
IOBA-NHC cells were cultured under standard conditions (humidified atmosphere of 5% CO2 at 37° C.) in DMEM/F12 supplemented with 1 μg/ml bovine pancreas insulin, 2 ng/ml mouse epidermal growth factor, 0.1 μg/ml cholera toxin, […] hydrocortisone, 10% fetal bovine serum (FBS), 50 UI/ml penicillin, and 50 UI/ml streptomycin. Cells from passages 50-80 were used in all experiments. Every day, normal culture development was observed by phase-contrast microscopy. Cells were removed by gentle trypsin incubation at confluence and counted. They were seeded into 96 well culture plates (Corning, Schiphol-Rijk, The Netherlands) for microtitration analysis of flow cytotoxicity assay (˜10,000 cells/well). Cultures were kept at 37° C. for 24 h. Subconfluent cells (culture surface covering nearly 70%) were then exposed to various peptide concentrations (0.22-225 μM). Cytotoxicity was measured periodically using MultiTox-Fluor Multiplex assay kit (Promega, Wis., USA) by measuring the AFC fluorescence (λex=485 and λem=520 nm).
In turn, `CC(C)[C@H](NC(=O)[C@H](CCCCN)NC(=O)[C@H](CCCNC(=N)N)NC(=O)CNC(=O)[C@@H](N)CCCNC(=N)N)C(=O)N[C@H](C(=O)N[C@@H](C)C(=O)N[C@@H](CCCNC(=N)N)C(=O)NCCCC[C@H](NC(=O)[C@H](CCCNC(=N)N)NC(=O)[C@H](C)NC(=O)[C@@H](NC(=O)[C@@H](NC(=O)[C@H](CCCCN)NC(=O)[C@H](CCCNC(=N)N)NC(=O)CNC(=O)[C@@H](N)CCCNC(=N)N)C(C)C)C(C)C)C(=O)NCCCC[C@H](NC(=O)[C@H](CCCCNC(=O)[C@H](CCCNC(=N)N)NC(=O)[C@H](C)NC(=O)[C@@H](NC(=O)[C@@H](NC(=O)[C@H](CCCCN)NC(=O)[C@H](CCCNC(=N)N)NC(=O)CNC(=O)[C@@H](N)CCCNC(=N)N)C(C)C)C(C)C)NC(=O)[C@H](CCCNC(=N)N)NC(=O)[C@H](C)NC(=O)[C@@H](NC(=O)[C@@H](NC(=O)[C@H](CCCCN)NC(=O)[C@H](CCCNC(=N)N)NC(=O)CNC(=O)[C@@H](N)CCCNC(=N)N)C(C)C)C(C)C)C(=O)N[C@@H](CCCCN)C(=O)O)C(C)C` [Peptide B4010-R7A] (I: H-RGRKVVARKKK-OH / II: H-RGRKVVARK / III: H-RGRKVVAR / IV: H-RGRKVVAR; amide I:9-IV:C, I:10-II:C, II:9-III:C) displayed an EC50 greater than 237 µM.
For the molecule `C[C@H](NC(=O)CNC(=O)[C@@H](N)CCCNC(=N)N)C(=O)N[C@@H](CCCCN)C(=O)N[C@@H](C)C(=O)N[C@@H](C)C(=O)N[C@@H](CCCNC(=N)N)C(=O)N[C@@H](CCCNC(=N)N)C(=O)NCCCC[C@H](NC(=O)[C@H](CCCNC(=N)N)NC(=O)[C@H](CCCNC(=N)N)NC(=O)[C@H](C)NC(=O)[C@H](C)NC(=O)[C@H](CCCCN)NC(=O)[C@H](C)NC(=O)CNC(=O)[C@@H](N)CCCNC(=N)N)C(=O)NCCCC[C@H](NC(=O)[C@H](CCCCNC(=O)[C@H](CCCNC(=N)N)NC(=O)[C@H](CCCNC(=N)N)NC(=O)[C@H](C)NC(=O)[C@H](C)NC(=O)[C@H](CCCCN)NC(=O)[C@H](C)NC(=O)CNC(=O)[C@@H](N)CCCNC(=N)N)NC(=O)[C@H](CCCNC(=N)N)NC(=O)[C@H](CCCNC(=N)N)NC(=O)[C@H](C)NC(=O)[C@H](C)NC(=O)[C@H](CCCCN)NC(=O)[C@H](C)NC(=O)CNC(=O)[C@@H](N)CCCNC(=N)N)C(=O)N[C@@H](CCCCN)C(=O)O` [[(SEQ ID NO: 15)2K]2KK] (I: H-RGAKAARRKKK-OH / II: H-RGAKAARRK / III: H-RGAKAARR / IV: H-RGAKAARR; amide I:9-IV:C, I:10-II:C, II:9-III:C; N-terminus and C-terminus assumed), the EC50 is greater than 250 µM.
In the case of `CC(C)[C@H](NC(=O)[C@H](C)NC(=O)[C@H](CCCNC(=N)N)NC(=O)CNC(=O)[C@@H](N)CCCNC(=N)N)C(=O)N[C@H](C(=O)N[C@@H](CCCNC(=N)N)C(=O)N[C@@H](CCCNC(=N)N)C(=O)NCCCC[C@H](NC(=O)[C@H](CCCNC(=N)N)NC(=O)[C@H](CCCNC(=N)N)NC(=O)[C@@H](NC(=O)[C@@H](NC(=O)[C@H](C)NC(=O)[C@H](CCCNC(=N)N)NC(=O)CNC(=O)[C@@H](N)CCCNC(=N)N)C(C)C)C(C)C)C(=O)NCCCC[C@H](NC(=O)[C@H](CCCCNC(=O)[C@H](CCCNC(=N)N)NC(=O)[C@H](CCCNC(=N)N)NC(=O)[C@@H](NC(=O)[C@@H](NC(=O)[C@H](C)NC(=O)[C@H](CCCNC(=N)N)NC(=O)CNC(=O)[C@@H](N)CCCNC(=N)N)C(C)C)C(C)C)NC(=O)[C@H](CCCNC(=N)N)NC(=O)[C@H](CCCNC(=N)N)NC(=O)[C@@H](NC(=O)[C@@H](NC(=O)[C@H](C)NC(=O)[C@H](CCCNC(=N)N)NC(=O)CNC(=O)[C@@H](N)CCCNC(=N)N)C(C)C)C(C)C)C(=O)N[C@@H](CCCCN)C(=O)O)C(C)C` [Peptide B4010-K4A] (I: H-RGRAVVRRKKK-OH / II: H-RGRAVVRRK / III: H-RGRAVVRR / IV: H-RGRAVVRR; amide I:9-IV:C, I:10-II:C, II:9-III:C), the EC50 is greater than 231 µM.
Take `CC(C)[C@H](NC(=O)[C@H](CCCCN)NC(=O)[C@H](CCCNC(=N)N)NC(=O)CNC(=O)[C@@H](N)CCCNC(=N)N)C(=O)N[C@H](C(=O)N[C@@H](CCCNC(=N)N)C(=O)N[C@@H](C)C(=O)NCCCC[C@H](NC(=O)[C@H](C)NC(=O)[C@H](CCCNC(=N)N)NC(=O)[C@@H](NC(=O)[C@@H](NC(=O)[C@H](CCCCN)NC(=O)[C@H](CCCNC(=N)N)NC(=O)CNC(=O)[C@@H](N)CCCNC(=N)N)C(C)C)C(C)C)C(=O)NCCCC[C@H](NC(=O)[C@H](CCCCNC(=O)[C@H](C)NC(=O)[C@H](CCCNC(=N)N)NC(=O)[C@@H](NC(=O)[C@@H](NC(=O)[C@H](CCCCN)NC(=O)[C@H](CCCNC(=N)N)NC(=O)CNC(=O)[C@@H](N)CCCNC(=N)N)C(C)C)C(C)C)NC(=O)[C@H](C)NC(=O)[C@H](CCCNC(=N)N)NC(=O)[C@@H](NC(=O)[C@@H](NC(=O)[C@H](CCCCN)NC(=O)[C@H](CCCNC(=N)N)NC(=O)CNC(=O)[C@@H](N)CCCNC(=N)N)C(C)C)C(C)C)C(=O)N[C@@H](CCCCN)C(=O)O)C(C)C` [Peptide B4010-R8A] (I: H-RGRKVVRAKKK-OH / II: H-RGRKVVRAK / III: H-RGRKVVRA / IV: H-RGRKVVRA; amide I:9-IV:C, I:10-II:C, II:9-III:C): the EC50 is greater than 237 µM.
With `CC(C)[C@H](NC(=O)[C@H](CCCCN)NC(=O)[C@H](CCCNC(=N)N)NC(=O)[C@H](C)NC(=O)[C@@H](N)CCCNC(=N)N)C(=O)N[C@H](C(=O)N[C@@H](CCCNC(=N)N)C(=O)N[C@@H](CCCNC(=N)N)C(=O)NCCCC[C@H](NC(=O)[C@H](CCCNC(=N)N)NC(=O)[C@H](CCCNC(=N)N)NC(=O)[C@@H](NC(=O)[C@@H](NC(=O)[C@H](CCCCN)NC(=O)[C@H](CCCNC(=N)N)NC(=O)[C@H](C)NC(=O)[C@@H](N)CCCNC(=N)N)C(C)C)C(C)C)C(=O)NCCCC[C@H](NC(=O)[C@H](CCCCNC(=O)[C@H](CCCNC(=N)N)NC(=O)[C@H](CCCNC(=N)N)NC(=O)[C@@H](NC(=O)[C@@H](NC(=O)[C@H](CCCCN)NC(=O)[C@H](CCCNC(=N)N)NC(=O)[C@H](C)NC(=O)[C@@H](N)CCCNC(=N)N)C(C)C)C(C)C)NC(=O)[C@H](CCCNC(=N)N)NC(=O)[C@H](CCCNC(=N)N)NC(=O)[C@@H](NC(=O)[C@@H](NC(=O)[C@H](CCCCN)NC(=O)[C@H](CCCNC(=N)N)NC(=O)[C@H](C)NC(=O)[C@@H](N)CCCNC(=N)N)C(C)C)C(C)C)C(=O)N[C@@H](CCCCN)C(=O)O)C(C)C` [Peptide B4010-G2A] (I: H-RARKVVRRKKK-OH / II: H-RARKVVRRK / III: H-RARKVVRR / IV: H-RARKVVRR; amide I:9-IV:C, I:10-II:C, II:9-III:C) the figure was 110 µM.
